Experimental data from the supplement of paper PMC10307832.

How the values were obtained:
Experiment in all cases: relative viability (nuclei count vs DMSO), 5 days (fraction); higher = more cells survive
[1] = compound: CC1CC(=O)N(C2=CN=C(N=C2N1C3CCCC3)NC4=C(C=C(C=C4)C(=O)NC5CCN(CC5)C)OC)C [NPK76-II-72-1] + CS(=O)(=O)N1CCN(Cc2cc3nc(-c4cccc5[nH]ncc45)nc(N4CCOCC4)c3s2)CC1 [Pictilisib] (partner 1 µM)
Method in brief: (§1)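 Five library-drug doses in √10 steps were combined with a fixed anchor-drug dose, or a single drug was given alone, by pin tool to lung cancer cell lines in 1536-well plates the day after seeding. Nuclei were stained and counted after 5 days. Relative viability is the nuclei count in treated wells over that in vehicle wells, taken as the median of duplicate plates.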

[2] = compound: CC1CC(=O)N(C2=CN=C(N=C2N1C3CCCC3)NC4=C(C=C(C=C4)C(=O)NC5CCN(CC5)C)OC)C [NPK76-II-72-1] + COc1cc2c(Oc3ccc(NC(=O)C4(C(=O)Nc5ccc(F)cc5)CC4)cc3F)ccnc2cc1OCCCN1CCOCC1 [Foretinib] (partner 0.25 µM)
Method in brief: as §1

BI-2536 + Tozasertib = compound: CC[C@@H]1C(=O)N(C)c2cnc(Nc3ccc(C(=O)NC4CCN(C)CC4)cc3OC)nc2N1C1CCCC1 [BI-2536] + Cc1cc(Nc2cc(N3CCN(C)CC3)nc(Sc3ccc(NC(=O)C4CC4)cc3)n2)n[nH]1 [Tozasertib] (partner 0.1 µM)
Method in brief: as §1

BI-2536 + Olaparib = compound: CC[C@@H]1C(=O)N(C)c2cnc(Nc3ccc(C(=O)NC4CCN(C)CC4)cc3OC)nc2N1C1CCCC1 [BI-2536] + O=C(c1cc(Cc2n[nH]c(=O)c3ccccc23)ccc1F)N1CCN(C(=O)C2CC2)CC1 [Olaparib] (partner 8 µM)
Method in brief: as §1

Cell Line | relative viability ([1]; first compound 0.01 µM) | relative viability ([1]; first compound 0.03162 µM) | relative viability ([1]; first compound 0.1 µM) | relative viability ([1]; first compound 0.3162 µM) | relative viability ([1]; first compound 1 µM) | relative viability ([2]; first compound 0.01 µM) | relative viability ([2]; first compound 0.03162 µM) | relative viability ([2]; first compound 0.1 µM) | relative viability ([2]; first compound 0.3162 µM) | relative viability ([2]; first compound 1 µM) | relative viability (BI-2536 + Tozasertib; first compound 0.01 µM) | relative viability (BI-2536 + Tozasertib; first compound 0.03162 µM) | relative viability (BI-2536 + Tozasertib; first compound 0.1 µM) | relative viability (BI-2536 + Tozasertib; first compound 0.3162 µM) | relative viability (BI-2536 + Tozasertib; first compound 1 µM) | relative viability (BI-2536 + Olaparib; first compound 0.01 µM) | relative viability (BI-2536 + Olaparib; first compound 0.03162 µM) | relative viability (BI-2536 + Olaparib; first compound 0.1 µM) | relative viability (BI-2536 + Olaparib; first compound 0.3162 µM) | relative viability (BI-2536 + Olaparib; first compound 1 µM)
NCI-H1944 | 0.351 | 0.352 | 0.318 | 0.338 | 0.35 | 0.9 | 0.936 | 0.899 | 0.808 | 0.992 | 0.25 | 0.268 | 0.234 | 0.234 | 0.195 | 0.385 | 0.389 | 0.297 | 0.164 | 0.147
LU99A | 0.371 | 0.32 | 0.411 | 0.292 | 0.334 | 0.774 | 0.765 | 0.936 | 0.503 | 0.979 | 0.272 | 0.235 | 0.248 | 0.281 | 0.227 | 0.23 | 0.24 | 0.192 | 0.137 | 0.149
SW 1573 | 0.425 | 0.497 | 0.498 | 0.455 | 0.463 | 0.997 | 1.02 | 0.914 | 0.963 | 0.824 | 0.192 | 0.166 | 0.159 | 0.127 | 0.121 | 0.446 | 0.266 | 0.12 | 0.1 | 0.0718
NCI-H2347 | 0.811 | 0.817 | 0.727 | 0.773 | 0.631 | 0.844 | 1.1 | 0.935 | 0.424 | 0.917 | – | 0.503 | 0.465 | 0.295 | 0.352 | 0.537 | 0.501 | 0.531 | 0.471 | 0.405
NCI-H2009 | 0.812 | 0.974 | 0.897 | 0.781 | 0.886 | 0.843 | 1.25 | 1.22 | 1.21 | 1.23 | 0.769 | 0.667 | 0.459 | 0.321 | 0.23 | 0.665 | 0.54 | 0.45 | 0.114 | 0.126
HCC-15 | 0.704 | 0.778 | 0.706 | 0.748 | 0.786 | 1.05 | 1.18 | 0.92 | 0.969 | 1.1 | 0.461 | 0.389 | 0.195 | 0.14 | 0.108 | 0.612 | 0.557 | 0.343 | 0.163 | 0.144
COR-L23 | 0.742 | 0.895 | 0.831 | 0.763 | 0.869 | 0.915 | 0.977 | 1.01 | 0.9 | 0.979 | 0.196 | 0.189 | 0.137 | 0.145 | 0.151 | 0.384 | 0.288 | 0.156 | 0.111 | 0.111
HCC-78 | – | 0.233 | 0.207 | – | 0.182 | 0.561 | 0.549 | 0.489 | 0.507 | 0.616 | 0.405 | 0.304 | 0.325 | 0.253 | 0.259 | 0.783 | 0.904 | 0.774 | 0.47 | 0.204
NCI-H727 | 0.396 | 0.428 | 0.385 | 0.418 | 0.319 | 0.93 | 1.04 | 0.783 | 1.14 | 0.897 | 0.646 | 0.695 | 0.672 | 0.496 | 0.392 | 0.589 | 0.765 | 0.643 | 0.461 | 0.576
NCI-H2087 | 0.895 | 0.838 | 0.895 | 0.722 | 1.04 | 1.04 | 1.06 | 1.09 | 1.12 | 1.32 | 0.25 | 0.214 | 0.155 | 0.119 | 0.12 | 0.614 | 0.673 | 0.471 | 0.0859 | 0.102
BEN | 0.526 | 0.551 | 0.526 | 0.606 | 0.55 | 0.676 | 0.526 | 0.748 | 0.657 | 0.635 | 0.524 | 0.546 | 0.452 | 0.58 | 0.553 | 1.09 | 0.984 | 0.779 | 0.382 | 0.364
LCLC-103H | 0.692 | 0.761 | 0.671 | 0.609 | 0.679 | 0.666 | 0.726 | 0.717 | 0.745 | 0.739 | 0.471 | 0.412 | 0.284 | 0.292 | 0.252 | 0.742 | 0.86 | 0.77 | 0.358 | 0.216
EKVX | 0.418 | 0.437 | 0.437 | 0.388 | 0.508 | 0.428 | 0.878 | 0.773 | 0.3 | 1.15 | 0.321 | 0.482 | 0.394 | 0.202 | 0.132 | 0.856 | 0.827 | 0.582 | 0.211 | 0.177
LXF-289 | 0.791 | 0.819 | 0.796 | 0.772 | 0.776 | 0.945 | 1.03 | 0.896 | 0.948 | 0.961 | 0.216 | 0.214 | 0.206 | 0.0925 | 0.11 | 1 | 0.719 | 0.343 | 0.0702 | 0.0622
ABC-1 | 0.638 | 0.8 | 0.483 | 0.678 | 0.743 | 1.06 | 1.12 | 0.799 | 1.08 | 1.17 | 0.203 | 0.147 | 0.185 | 0.197 | 0.233 | 0.657 | 0.876 | 0.423 | 0.406 | 0.299
NCI-H650 | 0.804 | 0.88 | 0.71 | – | 1.21 | 1.01 | 1.04 | 0.971 | 0.918 | 1.04 | 0.64 | 0.529 | 0.358 | 0.181 | 0.16 | 0.407 | 0.28 | 0.237 | 0.146 | 0.105
NCI-H1650 | 0.569 | 0.534 | 0.596 | 0.547 | 0.649 | 1.16 | 1.06 | 0.966 | 0.943 | 1.37 | 0.403 | 0.283 | 0.252 | 0.179 | 0.196 | 0.866 | 0.689 | 0.609 | 0.166 | 0.143
NCI-H2085 | 0.494 | 0.385 | 0.494 | 0.398 | 0.507 | 0.792 | 0.923 | 0.902 | 0.781 | 1.15 | 0.787 | 0.737 | 0.478 | 0.368 | 0.438 | 0.786 | 0.697 | 0.544 | 0.341 | 0.381
NCI-H1793 | 0.309 | 0.472 | 0.483 | 0.332 | 0.257 | 0.659 | 0.687 | 0.747 | 0.559 | 0.533 | 0.331 | 0.33 | 0.277 | 0.217 | 0.186 | 0.674 | 0.767 | 0.203 | 0.152 | 0.157
LC-2-ad | 0.428 | 0.515 | 0.445 | 0.386 | 0.428 | 0.908 | 0.948 | 0.94 | 0.809 | 1.08 | 0.412 | 0.278 | 0.279 | 0.318 | 0.383 | 0.705 | 0.621 | 0.24 | 0.205 | 0.205
COR-L 105 | 0.424 | 0.467 | 0.423 | 0.411 | 0.451 | 0.865 | 1.25 | 1.06 | 1.03 | 0.89 | 0.351 | 0.408 | 0.299 | 0.306 | 0.333 | 0.655 | 0.668 | 0.679 | 0.404 | 0.296
NCI-H1355 | 0.409 | 0.391 | 0.432 | 0.434 | 0.442 | 0.929 | 0.932 | 0.926 | 0.852 | 0.982 | 0.528 | 0.434 | 0.295 | 0.212 | 0.195 | 0.728 | 0.598 | 0.536 | 0.169 | 0.17
H3255 | 0.449 | 0.449 | 0.476 | 0.251 | 0.481 | 0.838 | 0.797 | 0.854 | 0.633 | 0.867 | 0.569 | 0.507 | 0.586 | 0.196 | 0.224 | 0.529 | 0.401 | 0.406 | 0.298 | 0.275
NCI-H1993 | 0.811 | 0.804 | 0.779 | 0.88 | 0.759 | 0.801 | 0.791 | 0.868 | 0.604 | 0.808 | 0.497 | 0.615 | 0.609 | 0.617 | 0.59 | 1.04 | 0.861 | 0.749 | 0.471 | 0.486
NCI-H1734 | 0.427 | 0.478 | 0.383 | 0.411 | 0.446 | 0.84 | 0.792 | 0.857 | 0.84 | 1.22 | 0.251 | 0.271 | 0.26 | 0.253 | 0.26 | 0.605 | 0.618 | 0.254 | 0.176 | 0.153
HOP-62 | 0.606 | 0.766 | 0.778 | 0.696 | 0.613 | 1.06 | 1.27 | 0.993 | 1.15 | 1.08 | 0.337 | 0.424 | 0.29 | 0.204 | 0.219 | – | 0.309 | 0.191 | 0.101 | 0.089
LOU-NH91 | 0.501 | 0.507 | 0.46 | 0.502 | 0.597 | 0.871 | 0.933 | 0.948 | 0.795 | 1 | 0.694 | 0.543 | 0.439 | 0.34 | 0.234 | 0.934 | 0.728 | 0.612 | 0.336 | 0.28
